Laboratory results taken from patent US6835720B2, “Compounds having antiviral activity” (Nissin Food Products Co., Ltd., priority 1996, dated 2004).

What was measured:
[1] = system: Herpes simplex II virus (HSVII); test: Plaque reduction assay, Herpes simplex II virus; type: cell-based
Description: (§1) Antiviral activity against human Parainfluenza virus, Respiratory syncytial virus (RSV) and Herpes simplex II virus (HSVII) was determined by the plaque reduction assay, while that against Feline immunodeficiency virus (FIV) and Feline leukemia virus (FeLV) by the reverse transcriptase assay and ELISA, respectively.
(§2) Each virus was obtained from ATCC. As host cells, VERO cells were used for Parainfluenza virus, and HEP2 cells for other viruses.
(§3) To fibroblasts growing in a T150 flask were added virus-infected cells, and the cells were incubated until they reached 60-80% infection. Cells were trypsinized, recovered and used as the virus stock. As the cell culture medium was used E-MEM containing 2-5% FBS, 100 U/ml Penicillin, 2.5 μg/ml Aniphotericin and 10 μg/ml Gentamycin.
(§4) Compound related to Example 29 was appropriately diluted to the concentrations of 500, 100, 50, 10 and 5 μg/ml with the culture medium or methyl cellulose. As the reference drug for HSV II was used Acyclovir. […]
(§5) Cells were cultured at 36-38° C. under the 5-7% CO2 atmosphere, and examined for the appearance of plaques under microscope. […] Number of plaques counted in the sample well was compared with that in the virus control well, and the decrease in the number of plaques was used to express the antiviral activity.

[2] = system: human T cells (H9 cell line); test: Cytotoxicity, viable cells counted by the MTT method; type: cell-based
Description: (§6) Samples of various concentrations (25 μl) are distributed into a 24-well microplate, immediately added with human T cells (H9 cell line, 1.2×10^5/ml) (1 ml), covered, and incubated at 37° C. for 1 h. Then, AIDS virus (HIV-1, IIIb, 100 TCID 50) (25 μl) is added to each well and thoroughly mixed, covered again, and incubated under the CO2 atmosphere at 37° C. for 3 days. On the fourth day, aliquots (200 μl) of the culture medium from each well are transferred into a fresh microplate. The growth medium (500 μl) is added to each well, and further incubated for 2 days.
(§7) On the 6th day, aliquots (90 μl) of the culture supernatant are withdrawn, and assayed the amount of p24, a constituent of HIV-1, by ELISA method using the anti-p24 antibody to assess the growth of said virus. Also, using the remaining cell culture suspension (100 μl), viable cells are counted by the MTT method. Experimental values are expressed as the ratios (%) to the negative control value (measured using the solvent to dissolve test compounds as the sample) to represent the anti-HIV activity and cytotoxicity. Then, for the unified representation of the anti-HIV activity and cytotoxicity, the concentrations of test compounds at their 50% values are obtained from the activity-concentration curves and the cytotoxicity-concentration, and represented as IC50 and CC50, respectively.

human plasma = test: Anti-coagulation activity in human plasma; conditions: calcium chloride, 37° C. for 30 min, judged with the naked eye
mice = test: Toxicity study, intravenous administration to mice; type: in vivo; conditions: intravenously administered
Description: Compounds were intravenously administered to mice, and LD50s (mg/kg) were determined.

AIDS virus (HIV-1, IIIb) = type: cell-based; conditions: HIV-1 IIIb in H9 cells, p24 in culture supernatant by ELISA on the 6th day
Description: as §6, §7

[3] = system: human Parainfluenza virus; test: Plaque reduction assay, Parainfluenza virus; type: cell-based; conditions: VERO cells
Description: as §1, §2, §3, §4, §5

[4] = system: Respiratory syncytial virus (RSV); test: Plaque reduction assay, Respiratory syncytial virus; type: cell-based; conditions: HEP2 cells
Description: as §1, §2, §3, §4, §5

[5] = system: Feline immunodeficiency virus (FIV); test: Reverse transcriptase assay, Feline immunodeficiency virus; type: cell-based; conditions: CRFK cells
Description: as §1
(§8) Each virus was obtained from ATCC. FIV was cultured with CRFK cells in Eagle's balanced salt medium containing 10% FBS, and the supernatant was used as the virus stock. As FeLV was used ATCC VR-717.
(§9) Compound related to Example 29 was diluted with the medium to similar concentrations described above.
(§10) For each single strain of virus, the assay was performed in the following combinations of conditions.
(§11) After CRFL cells were cultured in monolayer in 96-well microplates, the supernatant was discarded. […]
(§12) Using supernatants as the sample from the cell control well, the virus control well and the test well, the reverse transcriptase of FIV or FeLV antigen contained therein were quantitated using assay kits from Amersham LIFESCIENCE and Synbiotics, respectively. Anti-viral activity was expressed as that ratio (%) of the value of the test well to that of the virus control well after both values were subtracted with the value of the cell control well, respectively.

[6] = system: Feline leukemia virus (FeLV); test: FeLV antigen ELISA, Feline leukemia virus; type: cell-based
Description: as §1, §8, §9, §10, §11, §12

| IC50 ([1]; HEp-2, HEP2 cells) | Compound | CC50 [2] | Minimum concentration exhibiting anticoagulant action (human plasma) | LD50 (mice) | IC50 (AIDS virus (HIV-1, IIIb)) | IC50 [3] | IC50 [4] | IC50 ([1]; HEP2 cells) | IC50 [5] | IC50 [6] |
| --- | --- | --- | --- | --- | --- | --- | --- | --- | --- | --- |
| 21.6 µM | Nc1nc2c(ncn2COCCO)c(=O)[nH]1 [Acyclovir, reference compound] | – | – | – | – | – | – | – | – | – |
| – | CCCCCCCCCCCCCCCCCCCCCCOC[C@H](CO[C@]1(C(=O)[O-])C[C@H](OS(=O)(=O)[O-])[C@@H](NC(C)=O)[C@H]([C@H](OS(=O)(=O)[O-])[C@@H](COS(=O)(=O)[O-])OS(=O)(=O)[O-])O1)OCCCCCCCCCCCCCCCCCCCCCC.[Na+].[Na+].[Na+].[Na+].[Na+] [Example 12, 3-O-[Sodium{5-acetamido-3,5-dideoxy-4,7,8,9-tetra-O-(sodiumoxysulfonyl)-D-glycero-α-D-galacto-2-nonulopyranosyl}onate]-1,2-di-O-docosyl-Sn-glycerol] | > 200 µM | 900 µM | 2000 mg/kg | 0.8 µM | – | – | – | – | – |
| – | CCCCCCCCCCCCCCCCCCCCCCOCC(COC1(C(=O)[O-])CC(OS(=O)(=O)[O-])C(NC(C)=O)C(C(OS(=O)(=O)[O-])C(COS(=O)(=O)[O-])OS(=O)(=O)[O-])O1)OCCCCCCCCCCCCCCCCCCCCCC.[Na+].[Na+].[Na+].[Na+].[Na+] [Example 13, 3-O-[Sodium{5-acetamido-3,5-dideoxy-4,7,8,9-tetra-O-(sodiumoxysulfonyl)-D-glycero-β-D-galacto-2-nonulopyranosyl}onate]-1,2-di-O-docosyl-Sn-glycerol] | > 200 µM | 1200 µM | 2000 mg/kg | 1.6 µM | – | – | – | – | – |
| – | CCCCCCCCCCCCCCCCCCCCCCOCC(C)(COCCCCCCCCCCCCCCCCCCCCCC)COC1(C(=O)[O-])CC(OS(=O)(=O)[O-])C(NC(C)=O)C(C(OS(=O)(=O)[O-])C(COS(=O)(=O)[O-])OS(=O)(=O)[O-])O1.[Na+].[Na+].[Na+].[Na+].[Na+] [Example 29, Sodium[2,2-bis(docosyloxymethyl)propyl 5-acetamido-3,5-dideoxy-4,7,8,9-tetra-O-(sodiumoxysulfonyl)-D-glycero-α-D-galacto-2-nonulopyranosid]onate] | > 20 µM | 900 µM | 2000 mg/kg | 1.6 µM | 37.6 µM | 5.1 µM | 45.2 µM | 4.5 µM | 58.3 µM |
